Experimental data from patent US12209081B2 (Katholieke Universiteit Leuven, priority 2020, dated 2025).

Biological target: mouse TRPM3α2 (mTRPM3) ion channel (Mus musculus (Mouse), UniProt J9SQF3)
Experiment: TRPM3 ion channel driven Ca2+ uptake, Fluo-4 AM assay, mTRPM3alpha2 overexpressing flip-in HEK293 cells stimulated with pregnenolone sulfate
Assay type: cell-based
Settings: PS (50 μM) stimulated, cpd 001-199
Summary of the method: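 Flip-in HEK293 cells loaded with Fluo-4 AM were added to plates holding compound plus 50 μM pregnenolone sulfate in Ca2+-containing Krebs buffer. Fluorescence (ex 485/em 535 nm) read directly after cell addition; % inhibition relative to PS-stimulated vehicle and positive-control inhibitor.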

Sequence of mouse TRPM3α2 (mTRPM3) ion channel (J9SQF3 other isoform, or with tags, fused parts or gaps): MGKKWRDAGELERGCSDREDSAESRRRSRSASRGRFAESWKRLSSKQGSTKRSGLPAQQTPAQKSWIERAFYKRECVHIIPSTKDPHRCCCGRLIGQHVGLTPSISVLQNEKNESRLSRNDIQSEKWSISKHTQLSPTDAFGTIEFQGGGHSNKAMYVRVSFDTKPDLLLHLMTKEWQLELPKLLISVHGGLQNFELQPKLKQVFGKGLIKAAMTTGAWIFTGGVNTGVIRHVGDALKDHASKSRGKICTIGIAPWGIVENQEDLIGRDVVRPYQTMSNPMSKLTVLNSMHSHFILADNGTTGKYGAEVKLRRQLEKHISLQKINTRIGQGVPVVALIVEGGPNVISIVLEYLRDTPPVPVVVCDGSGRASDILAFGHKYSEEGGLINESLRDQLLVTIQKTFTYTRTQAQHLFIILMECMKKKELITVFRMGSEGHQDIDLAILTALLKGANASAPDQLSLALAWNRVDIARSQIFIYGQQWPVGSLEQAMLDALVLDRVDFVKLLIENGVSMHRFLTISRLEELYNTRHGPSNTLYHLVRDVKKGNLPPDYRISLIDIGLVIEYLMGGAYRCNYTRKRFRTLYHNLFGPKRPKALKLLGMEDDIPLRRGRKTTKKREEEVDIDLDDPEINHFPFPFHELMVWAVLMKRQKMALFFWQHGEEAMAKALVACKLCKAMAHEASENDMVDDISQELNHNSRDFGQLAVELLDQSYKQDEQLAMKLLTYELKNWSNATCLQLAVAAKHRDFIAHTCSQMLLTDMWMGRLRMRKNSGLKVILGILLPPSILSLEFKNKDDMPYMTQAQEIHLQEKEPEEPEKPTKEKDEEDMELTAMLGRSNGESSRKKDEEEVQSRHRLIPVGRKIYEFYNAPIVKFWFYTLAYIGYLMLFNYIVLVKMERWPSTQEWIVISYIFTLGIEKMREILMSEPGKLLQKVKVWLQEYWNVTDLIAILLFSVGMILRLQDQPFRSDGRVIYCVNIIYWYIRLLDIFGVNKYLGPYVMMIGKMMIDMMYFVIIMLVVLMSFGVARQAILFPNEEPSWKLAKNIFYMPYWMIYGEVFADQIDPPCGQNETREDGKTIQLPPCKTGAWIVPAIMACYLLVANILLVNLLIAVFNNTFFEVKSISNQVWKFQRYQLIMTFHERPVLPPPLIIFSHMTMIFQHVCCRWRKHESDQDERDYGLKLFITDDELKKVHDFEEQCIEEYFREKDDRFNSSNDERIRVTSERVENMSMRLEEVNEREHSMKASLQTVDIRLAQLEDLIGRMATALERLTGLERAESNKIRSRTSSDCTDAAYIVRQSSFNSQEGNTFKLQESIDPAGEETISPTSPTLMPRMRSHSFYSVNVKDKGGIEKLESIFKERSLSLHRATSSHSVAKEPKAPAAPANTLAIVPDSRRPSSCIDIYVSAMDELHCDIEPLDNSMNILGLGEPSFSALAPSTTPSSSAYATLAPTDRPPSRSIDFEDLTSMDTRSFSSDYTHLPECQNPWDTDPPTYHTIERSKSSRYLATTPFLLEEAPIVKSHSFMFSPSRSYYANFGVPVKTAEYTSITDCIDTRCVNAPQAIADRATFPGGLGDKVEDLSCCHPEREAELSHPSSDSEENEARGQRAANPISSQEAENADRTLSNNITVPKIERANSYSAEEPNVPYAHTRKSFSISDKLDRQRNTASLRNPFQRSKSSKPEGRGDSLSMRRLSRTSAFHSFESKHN

| IC50 | SMILES |
| --- | --- |
| < 1 µM | Cc1ncsc1COc1ccc2oc(C)c(C(=O)NC3COCC3O)c2c1 (single isomer, unassigned; dia 1) [162-Dia 1-En1] |
| < 1 µM | Cc1ncsc1COc1ccc2oc(C)c(C(=O)NC3COCC3O)c2c1 (single isomer, unassigned; dia 1) [162-Dia 1-En2] |
| > 20 µM | Cc1oc2ccc(OCC3CCNC3)cc2c1C(=O)O (stereo not drawn) [compound 003, 2-methyl-5-(pyrrolidin-3-ylmethoxy)benzofuran-3-carboxylic acid] |
| > 20 µM | Cc1oc2ccc(OCc3ccncc3)cc2c1C(=O)O [compound 004, 2-methyl-5-(pyridin-4-ylmethoxy)benzofuran-3-carboxylic acid] |
| > 20 µM | Cc1oc2ccc(OCc3ccnn3C)cc2c1C(=O)O [compound 008, 2-methyl-5-((1-methyl-1H-pyrazol-5-yl)methoxy)benzofuran-3-carboxylic acid] |
| > 20 µM | Cc1oc2ccc(OCC3CCOCC3)cc2c1C(=O)O [compound 015, 2-methyl-5-((tetrahydro-2H-pyran-4-yl)methoxy)benzofuran-3-carboxylic acid] |
| > 20 µM | Cc1noc(C)c1COc1ccc2oc(C)c(C(=O)O)c2c1 [compound 016, 5-((3,5-dimethylisoxazol-4-yl)methoxy)-2-methylbenzofuran-3-carboxylic acid] |
| > 20 µM | Cc1oc2ccc(OCc3nc4ccccc4s3)cc2c1C(=O)O [compound 017, 5-(benzo[d]thiazol-2-ylmethoxy)-2-methylbenzofuran-3-carboxylic acid] |
| < 1 µM | Cc1oc2ccc(OCc3cccnc3)cc2c1C(=O)N[C@H]1CCNC1 [compound 022, (S)-2-methyl-5-(pyridin-3-ylmethoxy)-N-(pyrrolidin-3-yl)benzofuran-3-carboxamide] |
| < 1 µM | Cc1oc2ccc(OCc3cncs3)cc2c1C(=O)N[C@H]1CCNC1 [compound 024, (S)-2-methyl-N-(pyrrolidin-3-yl)-5-(thiazol-5-ylmethoxy)benzofuran-3-carboxamide] |
| < 1 µM | Cc1oc2ccc(OCc3nccs3)cc2c1C(=O)N[C@H]1CCNC1 [compound 025, (S)-2-methyl-N-(pyrrolidin-3-yl)-5-(thiazol-2-ylmethoxy)benzofuran-3-carboxamide] |
| < 1 µM | Cc1oc2ccc(OCc3ccccn3)cc2c1C(=O)NC1CCNC1=O (stereo not drawn) [compound 026, 2-methyl-N-(2-oxopyrrolidin-3-yl)-5-(pyridin-2-ylmethoxy)benzofuran-3-carboxamide] |
| < 1 µM | Cc1oc2ccc(OCc3cccnc3)cc2c1C(=O)NC1CCNC1=O (stereo not drawn) [compound 027, 2-methyl-N-(2-oxopyrrolidin-3-yl)-5-(pyridin-3-ylmethoxy)benzofuran-3-carboxamide] |
| < 1 µM | Cc1cncc(COc2ccc3oc(C)c(C(=O)N[C@H]4CCNC4)c3c2)c1 [compound 028, (S)-2-methyl-5-((5-methylpyridin-3-yl)methoxy)-N-(pyrrolidin-3-yl)benzofuran-3-carboxamide] |
| < 1 µM | Cc1cccc(COc2ccc3oc(C)c(C(=O)N[C@H]4CCNC4)c3c2)n1 [compound 029, (S)-2-methyl-5-((6-methylpyridin-2-yl)methoxy)-N-(pyrrolidin-3-yl)benzofuran-3-carboxamide] |
| > 20 µM | Cc1ccc(COc2ccc3oc(C)c(C(=O)NC4CCOC4)c3c2)cn1 (stereo not drawn) [compound 033, 2-methyl-5-((6-methylpyridin-3-yl)methoxy)-N-(tetrahydrofuran-3-yl)benzofuran-3-carboxamide] |
| < 1 µM | Cc1oc2ccc(OCc3ccsc3)cc2c1C(=O)NC1CCNC1=O (stereo not drawn) [compound 035, 2-methyl-N-(2-oxopyrrolidin-3-yl) -5-(thiophen-3-ylmethoxy)benzofuran-3-carboxamide] |
| < 1 µM | Cc1cncc(COc2ccc3oc(C)c(C(=O)NC4CCNC4=O)c3c2)c1 (stereo not drawn) [compound 038, 2-methyl-5-((5-methylpyridin-3-yl)methoxy)-N-(2-oxopyrrolidin-3-yl)benzofuran-3-carboxamide] |
| > 20 µM | COc1ccncc1COc1ccc2oc(C)c(C(=O)NC3CCOC3)c2c1 (stereo not drawn) [compound 040, 5-((4-methoxypyridin-3-yl)methoxy)-2-methyl-N-(tetrahydrofuran-3-yl)benzofuran-3-carboxamide] |
| < 1 µM | Cc1oc2ccc(OCc3cccs3)cc2c1C(=O)NC1CCN(C)CC1 [compound 041, 2-methyl-N-(1-methylpiperidin-4-yl)-5-(thiophen-2-ylmethoxy)benzofuran-3-carboxamide] |
| < 1 µM | Cc1ncsc1COc1ccc2oc(C)c(C(=O)NC3CCNC3=O)c2c1 (stereo not drawn) [compound 042, 2-methyl-5-((4-methylthiazol-5-yl)methoxy)-N-(2-oxopyrrolidin-3-yl)benzofuran-3-carboxamide] |
| < 1 µM | Cc1csc(COc2ccc3oc(C)c(C(=O)NC4CCNC4=O)c3c2)n1 (stereo not drawn) [compound 043, 2-methyl-5-((4-methylthiazol-2-yl)methoxy)-N-(2-oxopyrrolidin-3-yl)benzofuran-3-carboxamide] |
| < 1 µM | Cc1oc2ccc(OCc3ccccn3)cc2c1C(=O)NC1(CO)CCOCC1 [compound 047, N-(4-(hydroxymethyl)tetrahydro-2H-pyran-4-yl)-2-methyl-5-(pyridin-2-ylmethoxy)benzofuran-3-carboxamide] |
| < 1 µM | Cc1oc2ccc(OCc3ccccn3)cc2c1C(=O)NC1CCNCC1(F)F (stereo not drawn) [compound 048, N-(3,3-difluoropiperidin-4-yl)-2-methyl-5-(pyridin-2-ylmethoxy)benzofuran-3-carboxamide] |
| < 1 µM | Cc1oc2ccc(OCc3nccs3)cc2c1C(=O)NC1(CO)CCOCC1 [compound 049, N-(4-(hydroxymethyl)tetrahydro-2H-pyran-4-yl)-2-methyl-5-(thiazol-2-ylmethoxy)benzofuran-3-carboxamide] |
| < 1 µM | COc1ncccc1COc1ccc2oc(C)c(C(=O)NC3CCN(C)CC3)c2c1 [compound 051, 5-((2-methoxypyridin-3-yl)methoxy)-2-methyl-N-(1-methylpiperidin-4-yl)benzofuran-3-carboxamide] |
| < 1 µM | Cc1ncsc1COc1ccc2oc(C)c(C(=O)NC3(CO)CCOCC3)c2c1 [compound 054, N-(4-(hydroxymethyl)tetrahydro-2H-pyran-4-yl)-2-methyl-5-((4-methylthiazol-5-yl)methoxy)-benzofuran-3-carboxamide] |

| SMILES | IC50 |
| --- | --- |
| Cc1oc2ccc(OCC3CCN(C(=O)OC(C)(C)C)C3)cc2c1C(=O)O (stereo not drawn) [compound 019, 5-((1-(tert-butoxycarbonyl)pyrrolidin-3-yl)methoxy)-2-methylbenzofuran-3-carboxylic acid] | > 20 µM |

Same assay, conditions: PS (50 μM) stimulated, cpds. 608-666

| IC50 | SMILES |
| --- | --- |
| < 1 µM | Cc1oc2ccc(OCc3cccnc3O)cc2c1C(=O)NC1CNCCC1(F)F (single isomer, unassigned) [cpd 637-En 1] |
| < 1 µM | Cc1oc2ccc(OCc3nccn3C)cc2c1C(=O)NC1CNCC1(F)F (single isomer, unassigned) [cpd 638-En 1] |
| 1 to 20 µM | Cc1oc2ccc(OCc3nccn3C)cc2c1C(=O)NC1CNCC1(F)F (single isomer, unassigned) [cpd 638-En 2] |
| < 1 µM | Cc1oc2ccc(OCc3ccnn3C)cc2c1C(=O)NC1CNCC1(F)F (single isomer, unassigned) [cpd 639-En 1] |
| 1 to 20 µM | Cc1oc2ccc(OCc3nccn3C)cc2c1C(=O)NC1COCC1(F)F (single isomer, unassigned) [cpd 641-En 1] |
| < 1 µM | Cc1oc2ccc(OCc3ccnn3C)cc2c1C(=O)NC1COCC1(F)F (single isomer, unassigned) [cpd 642-En 1] |
| < 1 µM | Cc1ncc(COc2ccc3oc(C)c(C(=O)NC4COCC4(F)F)c3c2)s1 (single isomer, unassigned) [cpd 643-En 1] |
| < 1 µM | Cc1ncsc1COc1ccc2oc(C)c(C(=O)NC3COCC3(F)F)c2c1 (single isomer, unassigned) [cpd 646-En 1] |
| < 1 µM | Cc1oc2ccc(OCc3ccccn3)cc2c1C(=O)NC1COCC1(F)F (single isomer, unassigned) [cpd 647-En 1] |
| < 1 µM | Cc1oc2ccc(OCc3cccnc3O)cc2c1C(=O)NC1COCC1(F)F (single isomer, unassigned) [cpd 648-En 1] |
| < 1 µM | Cc1ncsc1COc1ccc2oc(C)c(C(=O)NC3CCCCNC3=O)c2c1 (single isomer, unassigned) [cpd 661-En 1] |

Same assay, conditions: PS (50 μM) stimulated, cpds. 667-751

| IC50 | SMILES |
| --- | --- |
| < 1 µM | Cc1ncc(COc2ccc3oc(C)c(C(=O)NC(C)(CO)C(N)=O)c3c2)o1 (single isomer, unassigned) [cpd 722-En 1] |
| < 1 µM | Cc1ncc(COc2ccc3oc(C)c(C(=O)NC(C)(CO)C(N)=O)c3c2)o1 (single isomer, unassigned) [cpd 722-En 2] |
| < 1 µM | Cc1ncsc1COc1ccc2oc(C)c(C(=O)NC3CCOCC3(F)F)c2c1 (single isomer, unassigned) [cpd 723-En 1] |
| < 1 µM | Cc1ncc(COc2ccc3oc(C)c(C(=O)NC4CCOCC4(F)F)c3c2)s1 (single isomer, unassigned) [cpd 724-En 1] |
| 1 to 20 µM | Cc1ncc(COc2ccc3oc(C)c(C(=O)NC4CCOCC4(F)F)c3c2)s1 (single isomer, unassigned) [cpd 724-En 2] |
| < 1 µM | Cc1ncc(COc2ccc3oc(C)c(C(=O)NC(CS(C)(=O)=O)C(N)=O)c3c2)s1 (single isomer, unassigned) [cpd 726-En 1] |
| 1 to 20 µM | Cc1ncc(COc2ccc3oc(C)c(C(=O)NC4CCS(=N)(=O)C4)c3c2)s1 (single isomer, unassigned) [cpd 727-En 1] |
| < 1 µM | Cc1oc2ccc(OCc3ccccn3)cc2c1C(=O)NC(C)(CO)C(N)=O (single isomer, unassigned) [cpd 738-En 1] |
| < 1 µM | Cc1oc2ccc(OCc3ccc(F)cn3)cc2c1C(=O)NC(C)(CO)C(N)=O (single isomer, unassigned) [cpd 739-En 1] |
